Entries after “also recorded” stand apart in the source; their conditions may differ. No end group written: not given here.

The values that follow come from patent US7521423B2, “Exendin pharmaceutical compositions” (Amylin Pharmaceuticals, Inc., priority 1996, dated 2009).

For one assay, the system named is food intake. To be noted: mice, peripheral injection; cited from earlier work.
For assay [1], the system named is gastric emptying. The assay is described as follows: Gastric emptying in conscious rats, retention of phenol red methyl cellulose gel 20 min after gavage (Example 1). It counts as in vivo, Male Harlan Sprague Dawley (HSD) rats. To be noted: for ED50 of inhibition of gastric emptying: Example 1, FIG. 2, subcutaneous injection, 20 min after gavage; for % remaining (percent of gastric contents remaining 20 minutes after gavage): normal rats; for effect on gastric emptying (in words): Example 1, dose-response study. The protocol:
As described in Example 1, gastric emptying was measured in normal Sprague Dawley rats using the retention of an acaloric methylcellulose gel containing Phenol Red delivered by gavage. Dye content in stomachs removed after sacrifice 20 minutes later was determined spectroscopically, and was compared to that in rats sacrificed immediately after gavage to assess emptying.
This experiment followed a modification of the method of Scarpignato, et al., Arch. Int. Pharmacodyn. Ther. 246:286-94 (1980).
Male Harlan Sprague Dawley (HSD) rats were used. All animals were housed at 22.7±0.8 C in a 12:12 hour light:dark cycle (experiments being performed during the light cycle) and were fed and watered ad libitum (Diet LM-485, Teklad, Madison, Wis.).
The determination of gastric emptying by the method described below was performed after a fast of ˜20 hours to ensure that the stomach contained no chyme that would interfere with spectrophotometric absorbance measurements.
(§1) Conscious rats received by gavage, 1.5 ml of an acaloric gel containing 1.5% methyl cellulose (M-0262, Sigma Chemical Co, St Louis, Mo.) and 0.05% phenol red indicator. Twenty minutes after gavage, rats were anesthetized using 5% halothane, the stomach exposed and clamped at the pyloric and lower esophageal sphincters using artery forceps, removed and opened into an alkaline solution which was made up to a fixed volume. Stomach content was derived from the intensity of the phenol red in the alkaline solution, measured by absorbance at a wavelength of 560 nm. In separate experiments on 7 rats, the stomach and small intestine were both excised and opened into an alkaline solution. The quantity of phenol red that could be recovered from the upper gastrointestinal tract within 20 minutes of gavage was 89±4%; dye which appeared to bind irrecoverably to the gut luminal surface may have accounted for the balance. To account for a maximal dye recovery of less than 100%, percent of stomach contents remaining after 20 min were expressed as a fraction of the gastric contents recovered from control rats sacrificed immediately after gavage in the same experiment. Percent gastric contents remaining =(absorbance at 20 min)/(absorbance at 0 mm)×100.
In baseline studies, with no drug treatment, gastric emptying over 20 min was determined. […]

Assay [2] has as its system gastric emptying. The assay is described as follows: Antagonism by exendin[9-39] of gastric emptying inhibition by exendin-4 and GLP-1[7-36]NH2 (Example 3). Format: in vivo, rats. The protocol:
(sc), n=6; and 0.3 mg exendin[9-39] (sc), n=6 on the retention of gastric contents 20 minutes after gavage. Also shown are saline controls at t=0 and t=20 min. The error bars show standard error of the mean. […] Exendin[9-39] (sc) alone had no effect on gastric emptying.
(iv), n=5 on the retention of gastric contents 20 minutes after gavage. Also shown are saline controls at t+0 and t=20 min. The error bars show standard error of the mean.
(iv), n=3 on the retention of gastric contents 20 minutes after gavage. Also shown are saline controls at t=0 and t=20 min. The error bars show standard error of the mean. […] When injected along with GLP-1[7-36]NH2, exendin[9-39]
as §1
In these studies, exendin[9-39] was give both subcutaneously (sc) and intravenously (iv).

In assay [3] the test system is pentagastrin-induced gastric acid secretion. To be noted: reported, Gedulin et al. 1997; cited from earlier work.
Assay [4] has as its system gastric emptying. The assay is described as follows: Gastric emptying inhibition by exendin-4 analogs, methods of Example 1 (Example 2). Format: in vivo, Male HSD rats. To be noted: for ED50 of inhibition of gastric emptying: Example 2, FIG. 3; for ED50 of inhibition of gastric emptying / EC50 (inhibition of gastric emptying): 20 min after gavage; for EC50 (inhibition of gastric emptying): Example 2, Table II; for effect on gastric emptying (in words): Example 2, dose-response study.
From the text: as §1, with “Twenty” for “Conscious rats received by gavage, 1.5 ml of an acaloric gel containing 1.5% methyl cellulose (M-0262, Sigma Chemical Co, St Louis, Mo.) and 0.05% phenol red indicator. Twenty”, “The quantity of phenol red that could be recovered from the upper gastrointestinal tract within 20 minutes of gavage was 89±4%; dye which appeared to bind irrecoverably to the gut luminal surface may have accounted for the balance.” left out

In the case of GLP-1[7-36]NH2 [GLP-1 (7-36)NH2], in the assay on food intake, the “inhibition of food intake” value is reported as “not observed”. Besides, in the assay with gastric emptying [1], the “ED50 of inhibition of gastric emptying” value is recorded as “approximately 9 μg”. Also, the “% remaining (percent of gastric contents remaining 20 minutes after gavage)” value is listed as 42.00 (7) % with gastric emptying [1] (dose 0.100 μg); 29.60 (7) % with gastric emptying [1] (dose 0.300 μg); 37.20 (9) % in the assay on gastric emptying [1] (dose 1.000 μg); 56.60 (10) % in the assay on gastric emptying [1] (dose 3.000 μg); 87.90 (11) % with gastric emptying [1] (dose 10.000 μg); 103.60 (7) % in the assay on gastric emptying [1] (dose 100.000 μg). Further, in the assay with gastric emptying [2] (10 μg GLP-1[7-36]NH2 (sc) alone, FIGS. 6 and 7), the “effect on retention of gastric contents 20 minutes after gavage” value is “potently inhibited gastric emptying”. For the same substance, the “inhibition of pentagastrin-induced gastric acid secretion” value in assay [3] is given as “inhibitory effect”.
For ^14Leu, ^25Phe exendin-4, in the assay on gastric emptying [4], the “ED50 of inhibition of gastric emptying” value amounted to 0.29 µg, the “EC50 (inhibition of gastric emptying)” value worked out at 0.29 µg and the “effect on gastric emptying (in words)” value is recorded as “potent inhibitors of gastric emptying; also recorded: dose dependently inhibiting gastric emptying”.
With exendin-3, the “ED50 of inhibition of gastric emptying” value in the assay on gastric emptying [1] is roughly 0.1 µg. Also, the “effect on gastric emptying (in words)” value with gastric emptying [1] (listed as exendin 3) was “dose-dependently inhibited gastric emptying”; in the assay on gastric emptying [1] (listed as exendin-3), “potent inhibitors of gastric emptying”. The “% remaining (percent of gastric contents remaining 20 minutes after gavage)” value in the assay on gastric emptying [1] (dose 0.010 μg) is reported as 58.240 (3) %; with gastric emptying [1] (dose 0.100 μg), 70.770 (3) %; in the assay on gastric emptying [1] (dose 0.300 μg), 86.420 (3) %; with gastric emptying [1] (dose 1.000 μg), 95.330 (3) %; in the assay on gastric emptying [1] (dose 10.000 μg), 101.760 (3) %; in the assay on gastric emptying [1] (dose 100.000 μg), 103.640 (3) %.
Turning to exendin-4 acid, in the assay on gastric emptying [4], the “ED50 of inhibition of gastric emptying” value came to 0.12 µg, the “EC50 (inhibition of gastric emptying)” value is 0.12 µg and the “effect on gastric emptying (in words)” value is reported as “potent inhibitors of gastric emptying; also recorded: dose dependently inhibiting gastric emptying”.
Take exendin[9-39]: the “effect on gastric emptying” value with gastric emptying [2] (0.3 mg exendin[9-39] (sc) alone) was “no effect”. Further, the “antagonism of the effect of exendin-4 on gastric emptying inhibition” value is “did not antagonize” with gastric emptying [2] (0.3 mg exendin[9-39] (sc) plus 1.0 μg exendin-4 (sc), FIG. 4) and “did not antagonize” in the assay on gastric emptying [2] (0.5 mg exendin[9-39] (iv) plus 0.3 μg exendin-4 (sc), FIG. 5). For the same substance, the “antagonism of the effect of GLP-1[7-36]NH2 on gastric emptying inhibition” value in the assay with gastric emptying [2] (0.5 mg exendin[9-39] (iv) plus 10 μg GLP-1[7-36]NH2 (sc), FIG. 7) is “did not antagonize”; in the assay with gastric emptying [2] (3 mg exendin[9-39] (sc) plus 10 μg GLP-1[7-36]NH2 (sc), FIG. 6) it was “did not antagonize”. Also, the “reversal / block of the effect of exendin-4 on gastric emptying” value in the assay on gastric emptying [2] (exendin[9-39] administered sc or iv, FIGS. 4 and 5) is “not reversed; also recorded: did not block”. Also, the “block of the effect of GLP-1[7-36]NH2 on gastric emptying” value in the assay with gastric emptying [2] (exendin[9-39] sc or iv, FIGS. 6 and 7) is recorded as “did not block”.
“rat amylin (KCNTATCATQRLANFLVRSSNNLGPVLPPTNVGSNTY; ends and bridges not checked; cysteine pairing not given here; UniProt P12969 38-74, looked up) [second positive control for gastric emptying]”: the “% remaining (percent of gastric contents remaining 20 minutes after gavage)” value is on record as 37.60 (2) % in the assay with gastric emptying [1] (dose 0.010 μg); 52.70 (6) % with gastric emptying [1] (dose 0.100 μg); 58.20 (4) % with gastric emptying [1] (dose 0.300 μg); 96.80 (9) % in the assay on gastric emptying [1] (dose 1.000 μg); 108.000 (4) % in the assay on gastric emptying [1] (dose 3.000 μg); 101.10 (6) % in the assay with gastric emptying [1] (dose 10.000 μg). For the same substance, in the assay with gastric emptying [1] (dose 100.000 μg), the “% remaining (percent of gastric contents remaining 20 minutes after gavage)” value was 101.20 (2) %.
